Results taken from patent publication US20230167103A1 (Bayer Aktiengesellschaft, priority 2020, published 2023).

molecular target: T1, human DGKζ (Homo sapiens, UniProt Q13574); experiment: Human DGKζ kinase activity inhibition assay (ADP-Glo); type: biochemical; settings: example compounds; recombinant full-length human DGKζ, 1,2-dioleoyl-sn-glycerol 7 μM, ATP 55 μM, 20 min at 22° C.; read-out: IC50 values of examples in in vitro human DGKζ kinase activity inhibition assays
T1 construct: made in house; host or cells: Sf9 insect cells, baculovirus
Experimental: Human diacylglycerol kinase zeta (DGKζ) inhibitory activity of compounds of the present invention was quantified employing the human DGKζ kinase activity assay as described in the following paragraphs. In essence, the enzyme activity was measured by quantification of the adenosine-di-phosphate (ADP) generated as a co-product of the enzyme reaction via the “ADP-Glo™ Kinase Assay” kit from the company Promega. This detection system works as follows: In a first step the adenosine-tri-phosphate (ATP) not consumed in the kinase reaction is quantitatively converted to cyclic adenosine-mono-phosphate (cAMP) employing an adenylate cyclase (“ADP-Glo-reagent”), then the adenylate cyclase is stopped and the ADP generated in the kinase reaction is converted to ATP, which subsequently generates in a luciferase-based reaction a glow-luminescence signal (“Kinase Detection Reagent”).
C-terminally FLAG-tagged, recombinant full-length human DGKζ (inhouse expressed in baculovirus infected insect cells, purified using anti-Flag pulldown and size exclusion chromatography) was used as enzyme. As an alternative, commercially available enzyme by Carnabio can be used. As substrate for the kinase, 1,2-dioleoyl-sn-glycerol, reconstituted in octyl-β-D-glucopyranoside micelles, was used. […] Subsequently, 22.55 volumes of a 510 mM solution of octyl-β-D-glucopyranoside (Sigma-Aldrich, Cat. #O8001-10G) in 50 mM MOPS buffer (pH 7.4) were added, and the mixture was sonicated in an ultrasonic bath for 20 s. Then 35 volumes of 50 mM MOPS buffer (pH 7.4) were added to yield a solution of 0.28 mM 1,2 dioleoyl-sn-glycerol and 200 mM octyl-β-D-glucopyranoside, which was aliquoted, flash-frozen in liquid nitrogen, and stored at −20° C. until use.
For the assay 50 nl of a 100-fold concentrated solution of the test compound in dimethyl sulfoxide (DMSO, Sigma) was pipetted into either a white 1536-well or a white low-volume 384-well microtiter plate (both Greiner Bio-One, Frickenhausen, Germany). […] The concentration of DGKζ was adjusted depending of the activity of the enzyme lot and was chosen appropriate to have the assay in the linear range, a typical concentration is about 0.1 nM. The reaction was stopped by the addition of 2.5 μL of “ADP-Glo-reagent” (1 to 1.5 diluted with water) and the resulting mixture was incubated at 22° C. for 1 h to convert the ATP not consumed in the kinase reaction completely to cAMP. Subsequently 2.5 μl of the “kinase detection reagent” (1.2 fold more concentrated than recommended by the producer) were added, the resulting mixture was incubated at 22° C. for 1 h and then the luminescence measured with a suitable measurement instrument (e.g. Viewlux™ from Perkin-Elmer). The amount of emitted light was taken as a measure for the amount of ADP generated and thereby for the activity of the DGKζ.
The data were normalised (enzyme reaction without inhibitor=0% inhibition, all other assay components but no enzyme=100% inhibition).

T1 sequence (Q13574 with tags, fused parts or gaps): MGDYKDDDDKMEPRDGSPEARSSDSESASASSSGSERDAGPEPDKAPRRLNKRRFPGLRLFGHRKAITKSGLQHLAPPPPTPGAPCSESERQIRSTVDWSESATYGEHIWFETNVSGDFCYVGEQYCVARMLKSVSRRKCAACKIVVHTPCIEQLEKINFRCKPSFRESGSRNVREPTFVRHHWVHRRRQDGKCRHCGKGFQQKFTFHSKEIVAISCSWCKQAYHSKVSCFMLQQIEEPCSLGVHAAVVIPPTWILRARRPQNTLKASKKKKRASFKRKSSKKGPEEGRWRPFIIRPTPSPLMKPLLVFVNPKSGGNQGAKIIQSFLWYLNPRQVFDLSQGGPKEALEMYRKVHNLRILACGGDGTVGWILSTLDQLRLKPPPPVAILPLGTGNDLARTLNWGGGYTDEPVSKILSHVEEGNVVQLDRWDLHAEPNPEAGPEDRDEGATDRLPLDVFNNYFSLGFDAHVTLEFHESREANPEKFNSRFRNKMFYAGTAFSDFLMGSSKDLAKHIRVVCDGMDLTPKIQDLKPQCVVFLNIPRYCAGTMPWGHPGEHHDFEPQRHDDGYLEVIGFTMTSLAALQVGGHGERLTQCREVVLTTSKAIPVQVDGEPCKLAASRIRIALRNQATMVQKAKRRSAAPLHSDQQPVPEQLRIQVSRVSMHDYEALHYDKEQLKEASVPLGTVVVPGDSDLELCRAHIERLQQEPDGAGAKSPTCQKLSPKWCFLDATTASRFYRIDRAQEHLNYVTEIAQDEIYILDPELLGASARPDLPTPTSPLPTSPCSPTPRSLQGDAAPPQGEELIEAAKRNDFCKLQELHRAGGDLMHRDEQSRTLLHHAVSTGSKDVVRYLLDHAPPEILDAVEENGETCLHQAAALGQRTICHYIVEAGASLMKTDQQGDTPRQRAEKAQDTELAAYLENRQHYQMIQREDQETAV

IC50 | SMILES
566 nM | CC(C(N)=O)N(c1ccc(F)cc1)c1nc(N)c(C(=O)c2cc(C(=O)NCC#N)no2)s1 (racemic) [Example 35, rac-5-[4-amino-2-(N-(2-amino-1-methyl-2-oxo-ethyl)-4-fluoro-anilino)thiazole-5-carbonyl]-N-(cyanomethyl)isoxazole-3-carboxamide]
93 nM | CC(C(N)=O)N(c1ccc(F)cc1)c1nc(N)c(C(=O)c2cc(C(=O)NC3CC(F)(F)C3)no2)s1 (racemic) [Example 32, rac-5-[4-amino-2-(N-(2-amino-1-methyl-2-oxo-ethyl)-4-fluoro-anilino)thiazole-5-carbonyl]-N-(3,3-difluorocyclobutyl)isoxazole-3-carboxamide]
1270 nM | CC(C(N)=O)N(c1ccc(F)c(F)c1)c1nc(N)c(C(=O)c2cc(C(=O)NC3CC(F)(F)C3)no2)s1 (single isomer, unassigned) [Example 45.2, 5-[4-amino-2-(N-(2-amino-1-methyl-2-oxo-ethyl)-3,4-difluoro-anilino)thiazole-5-carbonyl]-N-(3,3-difluorocyclobutyl)isoxazole-3-carboxamide]
20 nM | CC(C(N)=O)N(c1ccc(F)c(F)c1)c1nc(N)c(C(=O)c2cc(C(=O)NC3CC(F)(F)C3)no2)s1 (single isomer, unassigned) [Example 45.1, 5-[4-amino-2-(N-(2-amino-1-methyl-2-oxo-ethyl)-3,4-difluoro-anilino)thiazole-5-carbonyl]-N-(3,3-difluorocyclobutyl)isoxazole-3-carboxamide]
134 nM | CC(NC(=O)c1cc(C(=O)c2sc(N(c3ccc(F)cc3)C(C)C(N)=O)nc2N)on1)C(F)F (racemic) [Example 41, 5-[4-amino-2-(N-(2-amino-1-methyl-2-oxo-ethyl)-4-fluoro-anilino)thiazole-5-carbonyl]-N-(2,2-difluoro-1-methyl-ethyl)isoxazole-3-carboxamide]
938 nM | CC(C(N)=O)N(c1ccc(F)cc1)c1nc(N)c(C(=O)c2cc(C(=O)Nc3cnn(C)c3)no2)s1 (racemic) [Example 12, rac-5-[4-amino-2-(N-(2-amino-1-methyl-2-oxo-ethyl)-4-fluoro-anilino)thiazole-5-carbonyl]-N-(1-methylpyrazol-4-yl)isoxazole-3-carboxamide]
59 nM | CC(C(N)=O)N(c1ccc(F)c(F)c1)c1nc(N)c(C(=O)c2cc(C(=O)NC3(C)CCC3)no2)s1 (racemic) [Example 44, rac-5-[4-amino-2-(N-(2-amino-1-methyl-2-oxo-ethyl)-3,4-difluoro-anilino)thiazole-5-carbonyl]-N-(1-methylcyclobutyl)isoxazole-3-carboxamide]
29 nM | CC(C(N)=O)N(c1ccc(F)cc1)c1nc(N)c(C(=O)c2cc(C(=O)NC3(C)CCC3)no2)s1 (single isomer, unassigned) [Example 30.1, 5-[4-amino-2-(N-(2-amino-1-methyl-2-oxo-ethyl)-4-fluoro-anilino)thiazole-5-carbonyl]-N-(1-methylcyclobutyl)isoxazole-3-carboxamide]
194 nM | CC(C(N)=O)N(c1ccc(F)cc1)c1nc(N)c(C(=O)c2cc(CNC3CCCC3)no2)s1 (racemic) [Example 62, rac-2-(N-[4-amino-5-[3-[(cyclopentylamino)methyl]isoxazole-5-carbonyl]thiazol-2-yl]-4-fluoro-anilino)propanamide]
98 nM | CC(C(N)=O)N(c1ccc(F)cc1)c1nc(N)c(C(=O)c2cc(CNC3(C)CCCC3)no2)s1 (racemic) [Example 61, rac-2-(Np[4-amino-5-[3-[[(1-methylcyclopentyl)amino]methyl]isoxazole-5-carbonyl]thiazol-2-yl]-4-fluoro-anilino)propanamide]
751 nM | CC(C(N)=O)N(c1ccc(F)cc1)c1nc(N)c(C(=O)c2cc(CO)no2)s1 (racemic) [Example 65, rac-2-(N-[4-amino-5-[3-(hydroxymethyl)isoxazole-5-carbonyl]thiazol-2-yl]-4-fluoro-anilino)propanamide]
29 nM | CC(C(N)=O)N(c1ccc(F)cc1)c1nc(N)c(C(=O)c2cc(COC(=O)Nc3ccccc3)no2)s1 (racemic) [Example 66, rac-[5-[4-amino-2-(N-(2-amino-1-methyl-2-oxo-ethyl)-4-fluoro-anilino)thiazole-5-carbonyl]isoxazol-3-yl]methyl N-phenylcarbamate]
242 nM | CC(C(N)=O)N(c1ccc(F)cc1)c1nc(N)c(C(=O)c2cc(CN3CCC(F)C3)no2)s1 (mixture of isomers) [Example 77, 2-(N-[4-amino-5-[3-[(3-fluoropyrrolidin-1-yl)methyl]isoxazole-5-carbonyl]thiazol-2-yl]-4-fluoro-anilino)propanamide]
42 nM | CC(C(N)=O)N(c1ccc(F)cc1)c1nc(N)c(C(=O)c2cc(C3CCCC3)no2)s1 (racemic) [Example 47, rac-2-(N-[4-amino-5-(3-cyclopentylisoxazole-5-carbonyl)thiazol-2-yl]-4-fluoro-anilino)propanamide]
223 nM | CC(C)NC(=O)c1cc(C(=O)c2sc(N(c3ccc(F)cc3)C(C)C(N)=O)nc2N)on1 (racemic) [Example 34, rac-5-[4-amino-2-(N-(2-amino-1-methyl-2-oxo-ethyl)-4-fluoro-anilino)thiazole-5-carbonyl]-N-isopropyl-isoxazole-3-carboxamide]
699 nM | CC(C(N)=O)N(c1ccc(F)cc1)c1nc(N)c(C(=O)c2cc(C(=O)NCC(F)F)no2)s1 (racemic) [Example 17, rac-5-[4-amino-2-(N-(2-amino-1-methyl-2-oxo-ethyl)-4-fluoro-anilino)thiazole-5-carbonyl]-N-(2,2-difluoroethyl)isoxazole-3-carboxamide]
14 nM | Cc1cccc(-c2noc(C(=O)c3sc(N(c4ccc(F)cc4)C(C)C(N)=O)nc3N)n2)c1C (racemic) [Example 56, rac-2-(N-[4-amino-5-[3-(2,3-dimethylphenyl)-1,2,4-oxadiazole-5-carbonyl]thiazol-2-yl]-4-fluoro-anilino)propanamide]
134 nM | CC(C(N)=O)N(c1ccc(F)cc1)c1nc(N)c(C(=O)c2cc(C(=O)NC3CCCC3)no2)s1 (racemic) [Example 25, rac-5-[4-amino-2-(N-(2-amino-1-methyl-2-oxo-ethyl)-4-fluoro-anilino)thiazole-5-carbonyl]-N-cyclopentyl-isoxazole-3-carboxamide]
13400 nM | CC(C(N)=O)N(c1ccc(F)cc1)c1nc(N)c(C(=O)c2cc(C(=O)NC3(C)CCC3)no2)s1 (single isomer, unassigned) [Example 30.2, 5-[4-amino-2-(N-(2-amino-1-methyl-2-oxo-ethyl)-4-fluoro-anilino)thiazole-5-carbonyl]-N-(1-methylcyclobutyl)isoxazole-3-carboxamide]
88 nM | CC(C(N)=O)N(c1ccc(F)cc1)c1nc(N)c(C(=O)c2cc(C(=O)NC3(C)CCC3)no2)s1 (racemic) [Example 30, rac-5-[4-amino-2-(N-(2-amino-1-methyl-2-oxo-ethyl)-4-fluoro-anilino)thiazole-5-carbonyl]-N-(1-methylcyclobutyl)isoxazole-3-carboxamide]
4510 nM | CC(C(N)=O)N(c1ccc(F)c(F)c1)c1nc(N)c(C(=O)c2cc(C(=O)NC3(C)CCC3)no2)s1 (single isomer, unassigned) [Example 44.2, 5-[4-amino-2-(N-(2-amino-1-methyl-2-oxo-ethyl)-3,4-difluoro-anilino)thiazole-5-carbonyl]-N-(1-methylcyclobutyl)isoxazole-3-carboxamide]
492 nM | CC(C(N)=O)N(c1ccc(F)cc1)c1nc(N)c(C(=O)c2cc(C(=O)N3CCC3)no2)s1 (racemic) [Example 18, rac-2-(N-[4-amino-5-[3-(azetidine-1-carbonyl)isoxazole-5-carbonyl]thiazol-2-yl]-4-fluoro-anilino)propanamide]
26 nM | CC(C(N)=O)N(c1ccc(F)cc1)c1nc(N)c(C(=O)c2cc(CN3CCC(F)(F)CC3)no2)s1 (racemic) [Example 75, rac-2-(N-[4-amino-5-[3-[(4,4-difluoro-1-piperidyl)methyl]isoxazole-5-carbonyl]thiazol-2-yl]-4-fluoro-anilino)propanamide]
